Measurements as given in patent US10815230B2, “Casein kinase 1 delta inhibitor” (ELECTROPHORETICS LIMITED, priority 2015, dated 2020).

What was measured:
Assay in all cases: KINOMEscan binding assay
Conditions in all cases: read-out: % Ctrl @ 10000 nM
WEE2 = molecular target: T1, WEE2 (Homo sapiens, UniProt P0C1S8)
T1 construct: purchased DiscoveRx (KINOMEscan, LeadHunter Discovery services)

ERK1 = ERK1 (Homo sapiens, UniProt P27361)
EGFR (L858R, T790M) = EGFR (L858R, T790M) (Homo sapiens, UniProt P00533, L858R/T790M)
PDGFRB = PDGFRB (Homo sapiens, UniProt P09619)
YANK1 = molecular target: T2, YANK1 (Homo sapiens, UniProt Q8WU08)
T2 construct: purchased DiscoveRx (KINOMEscan, LeadHunter Discovery services)

MLK1 = MLK1 (Homo sapiens, UniProt P80192)
LOK = LOK (Homo sapiens, UniProt O94804)
EGFR (G719S) = EGFR (G719S) (Homo sapiens, UniProt P00533, G719S)
EGFR (G719S), sequence (P00533 25-1210 G719S): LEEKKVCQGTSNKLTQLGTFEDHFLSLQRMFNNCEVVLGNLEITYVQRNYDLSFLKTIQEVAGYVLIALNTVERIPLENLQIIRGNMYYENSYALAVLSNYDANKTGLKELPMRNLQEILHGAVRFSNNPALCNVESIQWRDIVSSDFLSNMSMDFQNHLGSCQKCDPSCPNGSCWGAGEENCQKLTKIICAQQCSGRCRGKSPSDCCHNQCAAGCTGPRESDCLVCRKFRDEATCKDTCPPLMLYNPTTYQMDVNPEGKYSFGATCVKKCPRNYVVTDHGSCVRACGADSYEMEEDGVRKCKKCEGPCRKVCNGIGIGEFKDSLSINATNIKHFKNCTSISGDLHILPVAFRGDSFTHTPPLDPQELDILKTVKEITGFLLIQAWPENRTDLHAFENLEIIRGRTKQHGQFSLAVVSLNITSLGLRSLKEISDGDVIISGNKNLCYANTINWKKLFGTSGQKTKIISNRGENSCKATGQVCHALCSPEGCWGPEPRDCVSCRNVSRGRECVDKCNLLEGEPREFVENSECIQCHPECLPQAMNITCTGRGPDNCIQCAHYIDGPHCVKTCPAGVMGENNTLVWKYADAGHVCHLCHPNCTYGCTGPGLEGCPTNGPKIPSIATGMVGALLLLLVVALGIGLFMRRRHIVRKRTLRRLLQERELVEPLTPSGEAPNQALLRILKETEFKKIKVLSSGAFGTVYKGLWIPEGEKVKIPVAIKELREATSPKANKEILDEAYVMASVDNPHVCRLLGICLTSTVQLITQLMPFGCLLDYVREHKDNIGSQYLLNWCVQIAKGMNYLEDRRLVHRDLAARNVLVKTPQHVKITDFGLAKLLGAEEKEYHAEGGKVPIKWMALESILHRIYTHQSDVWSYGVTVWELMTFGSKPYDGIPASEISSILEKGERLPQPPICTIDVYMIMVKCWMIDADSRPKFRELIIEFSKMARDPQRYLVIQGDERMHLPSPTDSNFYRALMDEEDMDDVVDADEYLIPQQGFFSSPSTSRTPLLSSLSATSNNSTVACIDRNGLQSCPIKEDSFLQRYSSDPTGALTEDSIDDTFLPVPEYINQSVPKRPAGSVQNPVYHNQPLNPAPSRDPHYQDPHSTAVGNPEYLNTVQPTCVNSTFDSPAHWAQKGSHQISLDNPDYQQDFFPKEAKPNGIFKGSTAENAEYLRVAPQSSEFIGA

[1] = molecular target: ABL1 (H396P) phosphorylated (Homo sapiens, UniProt P00519, H396P)
PRKG1 = PRKG1 (Homo sapiens, UniProt Q13976)
CAMKK1 = CAMKK1 (Homo sapiens, UniProt Q8N5S9)
EPHB3 = EPHB3 (Homo sapiens, UniProt P54753)
EPHB3, sequence (P54753 34-998): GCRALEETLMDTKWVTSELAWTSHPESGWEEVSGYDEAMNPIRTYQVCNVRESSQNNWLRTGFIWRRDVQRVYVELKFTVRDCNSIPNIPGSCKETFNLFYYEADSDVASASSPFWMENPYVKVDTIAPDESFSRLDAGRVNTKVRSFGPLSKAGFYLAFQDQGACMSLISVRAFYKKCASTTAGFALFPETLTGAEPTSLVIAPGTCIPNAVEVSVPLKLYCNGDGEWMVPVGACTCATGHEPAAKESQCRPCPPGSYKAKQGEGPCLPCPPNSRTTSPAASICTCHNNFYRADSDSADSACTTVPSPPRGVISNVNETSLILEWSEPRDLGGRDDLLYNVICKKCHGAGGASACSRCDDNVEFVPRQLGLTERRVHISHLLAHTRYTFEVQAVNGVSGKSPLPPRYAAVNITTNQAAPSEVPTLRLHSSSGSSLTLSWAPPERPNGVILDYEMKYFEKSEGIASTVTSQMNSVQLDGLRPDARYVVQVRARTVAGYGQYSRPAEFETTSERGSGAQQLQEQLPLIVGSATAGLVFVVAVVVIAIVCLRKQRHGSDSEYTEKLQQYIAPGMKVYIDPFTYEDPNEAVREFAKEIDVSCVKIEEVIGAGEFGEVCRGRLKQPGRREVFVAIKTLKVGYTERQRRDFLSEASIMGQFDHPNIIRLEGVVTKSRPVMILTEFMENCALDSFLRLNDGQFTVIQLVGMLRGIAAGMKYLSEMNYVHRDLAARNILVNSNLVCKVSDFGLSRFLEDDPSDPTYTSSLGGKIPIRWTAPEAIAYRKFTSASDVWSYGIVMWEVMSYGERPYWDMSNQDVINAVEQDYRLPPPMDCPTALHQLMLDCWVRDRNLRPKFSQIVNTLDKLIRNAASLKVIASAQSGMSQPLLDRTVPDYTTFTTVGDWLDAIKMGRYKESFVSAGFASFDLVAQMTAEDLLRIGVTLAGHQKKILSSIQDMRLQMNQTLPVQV

AURKB = AURKB (Homo sapiens, UniProt Q96GD4)
AURKB, sequence (Q96GD4 whole entry): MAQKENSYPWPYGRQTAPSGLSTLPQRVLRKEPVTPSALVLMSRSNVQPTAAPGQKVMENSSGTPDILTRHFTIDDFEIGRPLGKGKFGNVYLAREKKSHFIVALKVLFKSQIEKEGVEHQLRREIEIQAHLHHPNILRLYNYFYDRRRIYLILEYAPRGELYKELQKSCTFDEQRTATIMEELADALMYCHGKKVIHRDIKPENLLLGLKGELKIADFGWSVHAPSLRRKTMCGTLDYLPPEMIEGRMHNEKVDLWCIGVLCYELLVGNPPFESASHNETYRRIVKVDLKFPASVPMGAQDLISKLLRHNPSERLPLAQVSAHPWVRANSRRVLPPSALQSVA

EGFR E746-A750del = EGFR E746-A750del (Homo sapiens, UniProt P00533, DEL746-750)
FGFR3 (G697C) = FGFR3 (G697C) (Homo sapiens, UniProt P22607, G697C)
IKK-alpha = IKK-alpha (Homo sapiens, UniProt O15111)
PKAC-beta = PKAC-beta (Homo sapiens, UniProt P22694)
TRKB = TRKB (Homo sapiens, UniProt Q16620)
MELK = MELK (Homo sapiens, UniProt Q14680)
EPHA8 = EPHA8 (Homo sapiens, UniProt P29322)
CDK2 = CDK2 (Homo sapiens, UniProt P24941)
ERBB4 = ERBB4 (Homo sapiens, UniProt Q15303)
TLK1 = TLK1 (Homo sapiens, UniProt Q9UKI8)
MAPKAPK5 = molecular target: T3, MAPKAPK5 (Homo sapiens, UniProt Q8IW41)
T3 construct: T7 phage fusion (most assays) or DNA label after HEK293 expression; purchased DiscoveRx (KINOMEscan, LeadHunter Discovery services); host or cells: T7 phage in E. coli (BL21-derived) or HEK293

KIT (D816V) = KIT (D816V) (Homo sapiens, UniProt P10721, D816V)
NEK5 = NEK5 (Homo sapiens, UniProt Q6P3R8)
NEK5, sequence (Q6P3R8 whole entry): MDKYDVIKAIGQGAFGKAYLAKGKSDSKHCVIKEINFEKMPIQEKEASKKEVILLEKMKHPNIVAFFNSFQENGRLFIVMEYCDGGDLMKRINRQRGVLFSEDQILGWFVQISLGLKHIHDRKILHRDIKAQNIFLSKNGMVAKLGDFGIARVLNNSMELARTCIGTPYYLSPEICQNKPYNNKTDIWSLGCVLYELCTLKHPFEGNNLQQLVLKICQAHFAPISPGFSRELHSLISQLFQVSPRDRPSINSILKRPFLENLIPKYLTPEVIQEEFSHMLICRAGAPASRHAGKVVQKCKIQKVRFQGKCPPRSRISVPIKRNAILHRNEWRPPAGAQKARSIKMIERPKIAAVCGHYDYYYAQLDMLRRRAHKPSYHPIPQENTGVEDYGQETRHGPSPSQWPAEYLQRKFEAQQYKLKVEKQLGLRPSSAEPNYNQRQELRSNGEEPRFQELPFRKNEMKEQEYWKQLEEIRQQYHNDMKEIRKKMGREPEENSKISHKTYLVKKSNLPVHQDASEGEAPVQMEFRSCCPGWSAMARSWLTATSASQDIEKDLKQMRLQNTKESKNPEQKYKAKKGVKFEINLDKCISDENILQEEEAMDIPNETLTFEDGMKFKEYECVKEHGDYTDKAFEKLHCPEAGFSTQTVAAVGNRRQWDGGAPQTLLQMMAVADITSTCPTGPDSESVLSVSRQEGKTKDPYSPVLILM

AURKC = AURKC (Homo sapiens, UniProt Q9UQB9)
PIK3CA (H1047Y) = PIK3CA (H1047Y) (Homo sapiens, UniProt P42336, H1047Y)
LATS2 = LATS2 (Homo sapiens, UniProt Q9NRM7)
KIT (V559D, V654A) = KIT (V559D, V654A) (Homo sapiens, UniProt P10721, V559D/V654A)
MAP3K1 = molecular target: T4, MAP3K1 (Homo sapiens, UniProt Q13233)
T4 construct: T7 phage fusion (most assays) or DNA label after HEK293 expression; purchased DiscoveRx (KINOMEscan, LeadHunter Discovery services); host or cells: T7 phage in E. coli (BL21-derived) or HEK293
T4 sequence (Q13233 whole entry, the tested form may be a part): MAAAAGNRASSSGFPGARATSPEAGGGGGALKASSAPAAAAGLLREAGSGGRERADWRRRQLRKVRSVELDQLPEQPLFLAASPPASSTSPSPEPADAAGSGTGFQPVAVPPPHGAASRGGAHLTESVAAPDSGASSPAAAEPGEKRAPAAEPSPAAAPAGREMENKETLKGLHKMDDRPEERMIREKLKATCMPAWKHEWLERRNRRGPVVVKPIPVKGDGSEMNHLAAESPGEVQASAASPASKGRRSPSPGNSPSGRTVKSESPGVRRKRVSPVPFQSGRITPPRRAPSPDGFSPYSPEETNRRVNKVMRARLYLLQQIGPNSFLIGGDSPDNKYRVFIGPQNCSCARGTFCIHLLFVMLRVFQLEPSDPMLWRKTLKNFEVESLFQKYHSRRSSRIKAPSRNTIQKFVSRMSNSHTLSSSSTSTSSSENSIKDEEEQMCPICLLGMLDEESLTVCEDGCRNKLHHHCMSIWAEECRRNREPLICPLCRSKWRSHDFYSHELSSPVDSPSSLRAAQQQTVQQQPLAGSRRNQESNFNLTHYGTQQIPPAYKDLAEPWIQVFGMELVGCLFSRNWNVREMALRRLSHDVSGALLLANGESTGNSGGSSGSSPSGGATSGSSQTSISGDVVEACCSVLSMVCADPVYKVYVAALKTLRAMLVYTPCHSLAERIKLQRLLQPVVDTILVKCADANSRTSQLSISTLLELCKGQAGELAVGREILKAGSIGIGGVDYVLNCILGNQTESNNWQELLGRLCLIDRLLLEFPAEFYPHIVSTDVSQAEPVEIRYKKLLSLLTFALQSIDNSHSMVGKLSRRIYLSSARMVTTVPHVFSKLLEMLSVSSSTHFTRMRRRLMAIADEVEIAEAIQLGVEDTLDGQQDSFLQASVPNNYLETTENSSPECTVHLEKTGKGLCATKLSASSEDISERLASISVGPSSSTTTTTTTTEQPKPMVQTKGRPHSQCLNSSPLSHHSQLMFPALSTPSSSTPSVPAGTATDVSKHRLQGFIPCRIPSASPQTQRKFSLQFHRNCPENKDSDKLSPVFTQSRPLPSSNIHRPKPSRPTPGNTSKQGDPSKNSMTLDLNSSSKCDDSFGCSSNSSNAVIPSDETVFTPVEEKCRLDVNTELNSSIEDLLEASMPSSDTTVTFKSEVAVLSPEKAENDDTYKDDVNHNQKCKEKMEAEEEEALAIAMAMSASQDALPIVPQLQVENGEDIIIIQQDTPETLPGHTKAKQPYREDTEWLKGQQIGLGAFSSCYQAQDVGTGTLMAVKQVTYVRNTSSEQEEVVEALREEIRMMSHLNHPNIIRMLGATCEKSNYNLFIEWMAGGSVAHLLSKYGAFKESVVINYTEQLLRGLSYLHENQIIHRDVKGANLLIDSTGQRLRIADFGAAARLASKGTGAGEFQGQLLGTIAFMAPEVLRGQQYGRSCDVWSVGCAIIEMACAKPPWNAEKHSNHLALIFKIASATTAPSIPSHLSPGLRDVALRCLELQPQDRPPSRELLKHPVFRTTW

AKT3 = AKT3 (Homo sapiens, UniProt Q9Y243)
SgK110 = SgK110 (Homo sapiens, UniProt P0C264)
ZAK = molecular target: T5, ZAK (Homo sapiens, UniProt Q9NYL2)
T5 construct: purchased DiscoveRx (KINOMEscan, LeadHunter Discovery services)

PRKCD = PRKCD (Homo sapiens, UniProt Q05655)
LRRK2 = LRRK2 (Homo sapiens, UniProt Q5S007)
ERBB2 = ERBB2 (Homo sapiens, UniProt P04626)
CAMK1G = CAMK1G (Homo sapiens, UniProt Q96NX5)
TYK2 JH1domain-catalytic = TYK2 JH1domain-catalytic (Homo sapiens, UniProt P29597)
CAMK2A = CAMK2A (Homo sapiens, UniProt Q9UQM7)

ERK1, sequence (P27361 whole entry): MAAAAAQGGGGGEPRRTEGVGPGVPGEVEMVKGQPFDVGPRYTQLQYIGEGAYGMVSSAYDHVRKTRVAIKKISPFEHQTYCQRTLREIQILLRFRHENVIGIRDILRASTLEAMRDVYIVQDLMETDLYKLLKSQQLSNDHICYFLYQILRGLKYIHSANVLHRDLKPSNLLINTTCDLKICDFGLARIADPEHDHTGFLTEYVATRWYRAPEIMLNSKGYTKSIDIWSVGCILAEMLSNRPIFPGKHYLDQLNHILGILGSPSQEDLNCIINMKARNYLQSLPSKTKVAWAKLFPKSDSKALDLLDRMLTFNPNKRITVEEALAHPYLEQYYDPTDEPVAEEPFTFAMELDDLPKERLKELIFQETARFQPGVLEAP

## Nc1ncc(-c2nc3ccccc3o2)c(-c2ccncc2)n1 [Comparative Compound 324, 5-(1,3-benzoxazol-2-yl)-4-(pyridine-4-yl)pyrimidin-2-amine]
WEE2
  remaining binding at 10 µM: 100%
ERK1
  remaining binding at 10 µM: 96%
EGFR (L858R, T790M)
  remaining binding at 10 µM: 51%
PDGFRB
  remaining binding at 10 µM: 90%
YANK1
  remaining binding at 10 µM: 66%
MLK1
  remaining binding at 10 µM: 100%
LOK
  remaining binding at 10 µM: 72%
EGFR (G719S)
  remaining binding at 10 µM: 63%
[1]
  remaining binding at 10 µM: 98%
PRKG1
  remaining binding at 10 µM: 100%
CAMKK1
  remaining binding at 10 µM: 100%
EPHB3
  remaining binding at 10 µM: 95%
AURKB
  remaining binding at 10 µM: 96%
EGFR E746-A750del
  remaining binding at 10 µM: 80%
FGFR3 (G697C)
  remaining binding at 10 µM: 76%
IKK-alpha
  remaining binding at 10 µM: 92%
PKAC-beta
  remaining binding at 10 µM: 95%
TRKB
  remaining binding at 10 µM: 67%
MELK
  remaining binding at 10 µM: 80%
EPHA8
  remaining binding at 10 µM: 94%
CDK2
  remaining binding at 10 µM: 100%
ERBB4
  remaining binding at 10 µM: 100%
TLK1
  remaining binding at 10 µM: 96%
MAPKAPK5
  remaining binding at 10 µM: 100%
KIT (D816V)
  remaining binding at 10 µM: 91%
NEK5
  remaining binding at 10 µM: 100%
AURKC
  remaining binding at 10 µM: 100%
PIK3CA (H1047Y)
  remaining binding at 10 µM: 72%
LATS2
  remaining binding at 10 µM: 82%
KIT (V559D, V654A)
  remaining binding at 10 µM: 79%
MAP3K1
  remaining binding at 10 µM: 85%
AKT3
  remaining binding at 10 µM: 100%
SgK110
  remaining binding at 10 µM: 94%
ZAK
  remaining binding at 10 µM: 79%
PRKCD
  remaining binding at 10 µM: 86%
LRRK2
  remaining binding at 10 µM: 83%
ERBB2
  remaining binding at 10 µM: 99%
CAMK1G
  remaining binding at 10 µM: 89%
TYK2 JH1domain-catalytic
  remaining binding at 10 µM: 86%
CAMK2A
  remaining binding at 10 µM: 99%

## CNc1c(C(N)=O)c2ccccn2c1C(=O)c1ccc(F)cc1 [Compound A, 2-methyl-amino-3-[(4-fluorophenyl)carbonyl]indolizine-1-carboxamide]
WEE2
  remaining binding at 10 µM: 100%
ERK1
  remaining binding at 10 µM: 100%
EGFR (L858R, T790M)
  remaining binding at 10 µM: 88%
PDGFRB
  remaining binding at 10 µM: 45%
YANK1
  remaining binding at 10 µM: 81%
MLK1
  remaining binding at 10 µM: 95%
LOK
  remaining binding at 10 µM: 61%
EGFR (G719S)
  remaining binding at 10 µM: 24%
[1]
  remaining binding at 10 µM: 49%
PRKG1
  remaining binding at 10 µM: 100%
CAMKK1
  remaining binding at 10 µM: 89%
EPHB3
  remaining binding at 10 µM: 42%
AURKB
  remaining binding at 10 µM: 86%
EGFR E746-A750del
  remaining binding at 10 µM: 25%
FGFR3 (G697C)
  remaining binding at 10 µM: 71%
IKK-alpha
  remaining binding at 10 µM: 96%
PKAC-beta
  remaining binding at 10 µM: 63%
TRKB
  remaining binding at 10 µM: 76%
MELK
  remaining binding at 10 µM: 71%
EPHA8
  remaining binding at 10 µM: 59%
CDK2
  remaining binding at 10 µM: 85%
ERBB4
  remaining binding at 10 µM: 64%
TLK1
  remaining binding at 10 µM: 87%
MAPKAPK5
  remaining binding at 10 µM: 100%
KIT (D816V)
  remaining binding at 10 µM: 71%
NEK5
  remaining binding at 10 µM: 91%
AURKC
  remaining binding at 10 µM: 100%
PIK3CA (H1047Y)
  remaining binding at 10 µM: 80%
LATS2
  remaining binding at 10 µM: 72%
KIT (V559D, V654A)
  remaining binding at 10 µM: 16%
MAP3K1
  remaining binding at 10 µM: 76%
AKT3
  remaining binding at 10 µM: 100%
SgK110
  remaining binding at 10 µM: 92%
ZAK
  remaining binding at 10 µM: 92%
PRKCD
  remaining binding at 10 µM: 93%
LRRK2
  remaining binding at 10 µM: 82%
ERBB2
  remaining binding at 10 µM: 49%
CAMK1G
  remaining binding at 10 µM: 65%
TYK2 JH1domain-catalytic
  remaining binding at 10 µM: 71%
CAMK2A
  remaining binding at 10 µM: 70%
